Like-named read-outs stand apart in the source and are kept apart here. Marks after values point to notes of the source that are not given here.
Tests used:
MES-induced seizures [1] = experiment: Maximal electroshock test (MES), rats; format: in vivo; conditions: Rat PO
Description: The benzodiazepine derivative compounds selective for GABAa receptor subunits were tested for the ability to suppress seizures in several standard rat and mouse models of epilepsy. […] The standard models incorporated into anticonvulsant screening include the maximal electroshock test (MES), the subcutaneous Metrazol test (scMet), and evaluations of toxicity (TOX). The data for each condition is presented as a ratio of either the number of animals protected or toxic (loss of locomotor activity) over the number of animals tested at a given time point and dose.
The MES is a model for generalized tonic-clonic seizures and provides an indication of a compound's ability to prevent seizure spread when all neuronal circuits in the brain are maximally active. These seizures are highly reproducible and are electrophysiologically consistent with human seizures. For all tests based on MES convulsions, 60 Hz of alternating current (50 mA in mice, 150 in rats) is delivered for by corneal electrodes which have been primed with an electrolyte solution containing an anesthetic agent (0.5% tetracaine HCL). For Test 1, mice are tested at various intervals following doses of 30, 100 and 300 mg/kg of test compound given by ip injection of a volume of 0.01 mL/g. In Test 2, rats are tested after a dose of 30 mg/kg (po) in a volume of 0.04 mL/g. Test 8 uses varying doses administered via i.p. injection, again in a volume of 0.04 ml/g. […] In Antiepileptic Drugs, Levy, R. H. M., Meldrum, B. S., Eds.; Raven Press: New York, pp 99-110, 1995b.).

[2] = Toxicity (TOX), minimal motor deficit, rats; format: in vivo; conditions: in vivo; Rat IP
[3] = tested on: minimal motor deficit (ataxia, abnormal gait); experiment: Toxicity (TOX), minimal motor deficit, rats; format: in vivo; conditions: for TOX (Rotorod Test), animals toxic/tested: Rat IP, 100 mg/kg; for Tox, animals toxic/tested: 50 mg/kg
kindled motor seizure = experiment: Hippocampus kindling screen; format: in vivo; conditions: Rats IP, 50 mg/kg after 1.0 h
Excerpt: The hippocampus kindling screen is a useful adjunct to the traditional MES and scMet tests for identification of a substance potential utility for treating complex partial seizures. […] No toxic effects were observed as indicated by the lack of motor impairment on the rats tested.

MES-induced seizures [4] = experiment: Maximal electroshock test (MES), mice; format: in vivo
6 Hz psychomotor seizure = experiment: Minimal clonic seizure (6 Hz) test; format: in vivo; conditions: Mice IP; for 6 Hz, animals protected/tested: 100 m/k; for ED50: Mus musculus, ip
Summary of the method: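 Mice dosed ip with test compound before 6 Hz corneal-type electrical stimulation lasting 3 s. Protection scored as absence of minimal clonic phase and stereotyped automatistic behaviour seen in untreated animals.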

[5] = tested on: Metrazol-induced clonic seizures; experiment: Subcutaneous Metrazol test (scMet), mice; format: in vivo
[6] = tested on: minimal muscular or neurological impairment; experiment: Toxicity (TOX), rotorod procedure, mice; format: in vivo
[7] = target: T1, GABAA/α5 (α5β3γ2 GABAA receptors) (Homo sapiens, UniProt P18507+P31644); experiment: Competitive binding assay, [3H]flunitrazepam; conditions: Binding Affinity at GABAA/α5, αxβ3γ2, [3H]flunitrazepam competition
T1 construct: expressed in transfected cells
Summary of the method: (§1)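 Bound ligand was collected on 0.3% polyethyleneimine-pretreated GF/C filters with three ice-cold washes and quantified by liquid scintillation counting; membrane protein was determined against a BSA standard.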

[8] = target: T2, GABAA/α1 (α1β3γ2 GABAA receptors) (Homo sapiens, UniProt P14867+P18507); experiment: Competitive binding assay, [3H]flunitrazepam; conditions: Binding Affinity at GABAA/α1, αxβ3γ2, [3H]flunitrazepam competition
T2 construct: expressed in transfected cells
Summary of the method: as §1

[9] = Mice, 50 mg/kg PO (Mice IP), 0.5 hr
[10] = Mice, 50 mg/kg PO (Mice IP), 4.0 hr

C#Cc1ccc2c(c1)C(c1ccccn1)=NCc1c(C(=O)OCC)ncn1-2 [Hz166 (106), 8-Acetylenyl-6-pyridin-2-yl-4H-benzo[f]imidazo[1,5-a][1,4]diazepine-3-carboxylic acid ethyl ester]
ED50 (MES-induced seizures [1]): > 250 mg/kg
MES, animals protected/tested (MES-induced seizures [1]; 30 mg/kg, 0.5 h): 1/4
MES, animals protected/tested (MES-induced seizures [1]; 30 mg/kg, 1.0 h): 0/4
MES, animals protected/tested (MES-induced seizures [1]; 30 mg/kg, 2.0 h): 0/4
MES, animals protected/tested (MES-induced seizures [1]; 30 mg/kg, 4.0 h): 0/4
MES, animals protected/tested (MES-induced seizures [1]; 30 mg/kg, […]): 0/4
TD50 [2]: 95.3 mg/kg
TOX (Rotorod Test), animals toxic/tested ([3]; 0.5 hr): 0/8
TOX (Rotorod Test), animals toxic/tested ([3]; 4.0 hr): 0/8
Tox, animals toxic/tested ([3]; Rat PO, 0.5 h): 0/4
Tox, animals toxic/tested ([3]; Rat PO, 1.0 h): 0/4
Tox, animals toxic/tested ([3]; Rat PO, 2.0 h): 0/4
Tox, animals toxic/tested ([3]; Rat PO, 4.0 h): 0/4
Tox, animals toxic/tested ([3]; Rat PO, […]): 0/4
TD50 TOX ([3]; Rat PO, abnormal gait): >500 mg/kg
motor impairment / sedative or locomotor effects ([3]; rats, oral administration, up to 500 mg/kg): No motor impairment
Tox, animals toxic/tested (kindled motor seizure): 0/8^a
Afterdischarge Duration, Drug (Low-High) (kindled motor seizure; pre-drug 47-61): 59- s
MES, animals protected/tested (MES-induced seizures [4]; Mice IP, 100 mg/kg, 0.5 hr): 0/3
MES, animals protected/tested (MES-induced seizures [4]; Mice IP, 100 mg/kg, 4.0 hr): 0/3
MES, animals protected/tested (MES-induced seizures [4]; [9]): 1/4
MES, animals protected/tested (MES-induced seizures [4]; [10]): 0/4
ED50 (MES-induced seizures [4]; Mus musculus, Mice IP): > 300 mg/kg
6 Hz, animals protected/tested (6 Hz psychomotor seizure; 44 mA, 0.5 hr): 1/4
6 Hz, animals protected/tested (6 Hz psychomotor seizure; 44 mA, 1.0 hr): 1/4
6 Hz, animals protected/tested (6 Hz psychomotor seizure; 44 mA, 2.0 hr): 0/4
6 Hz, animals protected/tested (6 Hz psychomotor seizure; 44 mA, 4 hr): 0/4
6 Hz, animals protected/tested (6 Hz psychomotor seizure; 44 mA, […]): 4/4
ED50 (6 Hz psychomotor seizure; 32 mA, read-out: ED50 32 mA (6 Hz test)): 25.8 mg/kg
ED50 (6 Hz psychomotor seizure; 44 mA, read-out: ED50 44 mA (6 Hz test)): 115 mg/kg
mice protected against scMet induced seizures ([5]; Mice IP, 100 mg/kg, 0.5 hr): 60%
scMet, animals protected/tested ([5]; Mice IP, 100 mg/kg, 0.5 hr): 3/5
scMet, animals protected/tested ([5]; Mice IP, 100 mg/kg, 4.0 hr): 0/1
scMet, animals protected/tested [5, 9]: 4/4
scMet, animals protected/tested [5, 10]: 0/4
ED50 ([5]; Mus musculus, Mice IP): 16.3 mg/kg
TOX (Rotorod Test), animals toxic/tested ([6]; Mice IP, 100 mg/kg, 0.5 hr): 0/8
TOX (Rotorod Test), animals toxic/tested ([6]; Mice IP, 100 mg/kg, 4.0 hr): 0/4
TD50 TOX ([6]; Mice IP, rotorod): > 500 mg/kg
TOX (Rotorod Test), animals toxic/tested [6, 9]: 0/4
TOX (Rotorod Test), animals toxic/tested [6, 10]: 0/4

C#Cc1ccc2c(c1)C(c1ccccc1)=N[C@H](C)c1nnc(C)n1-2 [SH-TR-CH3 (146), (4R)-8-Ethynyl-1,4-dimethyl-6-phenyl-4H-benzo[f][1,2,4]triazolo[4,3-a][1,4]diazepine]
Ki [7]: 1.95 µM
Ki [8]: 7.37 µM
MES, animals protected/tested (MES-induced seizures [1]; 50 mg/kg, 0.5 h): 0/4
MES, animals protected/tested (MES-induced seizures [1]; 50 mg/kg, 1.0 h): 0/4
MES, animals protected/tested (MES-induced seizures [1]; 50 mg/kg, 2.0 h): 0/4
MES, animals protected/tested (MES-induced seizures [1]; 50 mg/kg, 4.0 h): 0/4
MES, animals protected/tested (MES-induced seizures [1]; 50 mg/kg, […]): 0/4
Tox, animals toxic/tested ([3]; Rat PO, 0.5 h): 0/4
Tox, animals toxic/tested ([3]; Rat PO, 1.0 h): 1/4
Tox, animals toxic/tested ([3]; Rat PO, 2.0 h): 1/4
Tox, animals toxic/tested ([3]; Rat PO, 4.0 h): 0/4
Tox, animals toxic/tested ([3]; Rat PO, […]): 0/4
MES, animals protected/tested (MES-induced seizures [4]; Mice IP, 30 mg/kg, 0.5 Hr): 0/1
MES, animals protected/tested (MES-induced seizures [4]; Mice IP, 30 mg/kg, 4.0 Hr): 0/1
MES, animals protected/tested (MES-induced seizures [4]; Mice IP, 100 mg/kg, 0.5 hr): 0/3
MES, animals protected/tested (MES-induced seizures [4]; Mice IP, 100 mg/kg, 4.0 hr): 0/3
MES, animals protected/tested (MES-induced seizures [4]; Mice IP, 300 mg/kg, 0.5 Hr): 0/1
MES, animals protected/tested (MES-induced seizures [4]; Mice IP, 300 mg/kg, 4.0 Hr): 0/1
6 Hz Time to Peak Effect, protected/tested (6 Hz psychomotor seizure; 7 mg/kg, 32 mA, 0.25 Hr): 4/4
6 Hz Time to Peak Effect, protected/tested (6 Hz psychomotor seizure; 7 mg/kg, 32 mA, 0.5 Hr): 4/4
6 Hz Time to Peak Effect, protected/tested (6 Hz psychomotor seizure; 7 mg/kg, 32 mA, 1.0 Hr): 2/4
6 Hz Time to Peak Effect, protected/tested (6 Hz psychomotor seizure; 15 mg/kg, 32 mA, 0.25 Hr): 4/4
6 Hz Time to Peak Effect, protected/tested (6 Hz psychomotor seizure; 15 mg/kg, 32 mA, 0.5 Hr): 4/4^14
6 Hz Time to Peak Effect, protected/tested (6 Hz psychomotor seizure; 15 mg/kg, 32 mA, 1.0 Hr): 4/4^14
6 Hz Time to Peak Effect, protected/tested (6 Hz psychomotor seizure; 15 mg/kg, 32 mA, 2.0 Hr): 2/4
6 Hz Time to Peak Effect, protected/tested (6 Hz psychomotor seizure; 15 mg/kg, 32 mA, 4.0 Hr): 1/4
6 Hz Time to Peak Effect, protected/tested (6 Hz psychomotor seizure; 50 mg/kg, 32 mA, 0.25 Hr): 4/4^14
6 Hz Time to Peak Effect, protected/tested (6 Hz psychomotor seizure; 50 mg/kg, 32 mA, 0.5 Hr): 4/4^14
6 Hz Time to Peak Effect, protected/tested (6 Hz psychomotor seizure; 100 mg/kg, 32 mA, 0.25 Hr): 4/4^14
6 Hz Time to Peak Effect, protected/tested (6 Hz psychomotor seizure; 100 mg/kg, 32 mA, 0.5 Hr): 4/4^14
6 Hz Time to Peak Effect, protected/tested (6 Hz psychomotor seizure; 100 mg/kg, 32 mA, 1.0 Hr): 4/4^14
6 Hz Time to Peak Effect, protected/tested (6 Hz psychomotor seizure; 100 mg/kg, 32 mA, 2.0 Hr): 4/4^14
6 Hz Time to Peak Effect, protected/tested (6 Hz psychomotor seizure; 100 mg/kg, 32 mA, 4.0 Hr): 4/4^14
6 Hz ED50 Biological Response, protected/tested (6 Hz psychomotor seizure; 32 mA, 0.25 Hr, 1.75 mg/kg): 4/8
6 Hz ED50 Biological Response, protected/tested (6 Hz psychomotor seizure; 32 mA, 0.25 Hr, 7 mg/kg): 8/8
6 Hz ED50 Biological Response, protected/tested (6 Hz psychomotor seizure; 44 mA, 0.25 Hr, 5 mg/kg): 5/8
6 Hz ED50 Biological Response, protected/tested (6 Hz psychomotor seizure; 44 mA, 0.25 Hr, 10 mg/kg): 8/8
ED50 (6 Hz psychomotor seizure; […], 32 mA, 0.25 Hr, read-out: ED50 (6 Hz)): 2.08 mg/kg
ED50 (6 Hz psychomotor seizure; […], 44 mA, 0.25 Hr, read-out: ED50 (6 Hz)): 4.55 mg/kg
scMet, animals protected/tested ([5]; Mice IP, 30 mg/kg, 0.5 Hr): 0/1
scMet, animals protected/tested ([5]; Mice IP, 30 mg/kg, 4.0 Hr): 0/1
scMet, animals protected/tested ([5]; Mice IP, 100 mg/kg, 0.5 hr): 0/1
scMet, animals protected/tested ([5]; Mice IP, 100 mg/kg, 4.0 hr): 0/1
scMet, animals protected/tested ([5]; Mice IP, 300 mg/kg, 0.5 Hr): 1/1
scMet, animals protected/tested ([5]; Mice IP, 300 mg/kg, 4.0 Hr): 0/1
TOX (Rotorod Test), animals toxic/tested ([6]; Mice IP, 30 mg/kg, 0.5 Hr): 0/4
TOX (Rotorod Test), animals toxic/tested ([6]; Mice IP, 30 mg/kg, 4.0 Hr): 0/2
TOX (Rotorod Test), animals toxic/tested ([6]; Mice IP, 100 mg/kg, 0.5 hr): 1/8
TOX (Rotorod Test), animals toxic/tested ([6]; Mice IP, 100 mg/kg, 4.0 hr): 0/4
TOX (Rotorod Test), animals toxic/tested ([6]; Mice IP, 300 mg/kg, 0.5 Hr): 1/4
TOX (Rotorod Test), animals toxic/tested ([6]; Mice IP, 300 mg/kg, 4.0 Hr): 0/2

Source: patent US20100261711A1, “SELECTIVE ANTICONVULSANT AGENTS AND THEIR USES” (WiSys Technology Foundation, priority 2009, published 2010)
